# Assay results from patent US10179771B2 (GALAPAGOS NV, priority 2014, dated 2019).
# Biological target: T1, Recombinant human JAK1 catalytic domain (Homo sapiens, UniProt P23458)
# T1 construct: Recombinant human JAK1 (catalytic domain, amino acids 866-1154; catalog number PV4774); purchased Invitrogen PV4774
# Assay: JAK1 inhibition assay (polyGT substrate / Ulight-JAK1 peptide assay)
# Format: biochemical
# Settings: Comparative Compounds (Table VI)
# Protocol: Recombinant human JAK1 catalytic domain (amino acids 850-1154; catalog number 08-144) was purchased from Carna Biosciences. 10 ng of JAK1 is incubated with 12.5 μg polyGT substrate (Sigma catalog number P0275) in kinase reaction buffer (15 mM Tris-HCl pH 7.5, 1 mM DTT, 0.01% Tween-20, 10 mM MgCl2, 2 μM non-radioactive ATP, 0.25 ρCi ^33P-gamma-ATP (GE Healthcare, catalog number AH9968) final concentrations) with or without 5 μL containing test compound or vehicle (DMSO, 1% final concentration), in a total volume of 25 μL, in a polypropylene 96-well plate (Greiner, V-bottom). After 45 min at 30° C., reactions are stopped by adding of 25 μL/well of 150 mM phosphoric acid. All of the terminated kinase reaction is transferred to prewashed (75 mM phosphoric acid) 96 well filter plates (Perkin Elmer catalog number 6005177) using a cell harvester (Perkin Elmer). Plates are washed 6 times with 300 μL per well of a 75 mM phosphoric acid solution and the bottom of the plates is sealed. 40 μL/well of Microscint-20 is added, the top of the plates is sealed and readout is performed using the Topcount (Perkin Elmer). Kinase activity is calculated by subtracting counts per min (cpm) obtained in the presence of a positive control inhibitor (10 μM staurosporine) from cpm obtained in the presence of vehicle. The ability of a test compound to inhibit this activity is determined as:
# [formula] • RFU test compound=RFU determined for sample with test compound present • RFU control=RFU determined for sample with positive control inhibitor • RFU vehicle=RFU determined in the presence of vehicle
# Dose dilution series are prepared for the compounds enabling the testing of dose-response effects in the JAK1 assay and the calculation of the IC50 for each compound. Each compound is routinely tested at concentration of 20 μM followed by a 1/3 serial dilution, 8 points (20 μM-6.67 μM-2.22 μM-740 nM-247 nM-82 nM-27 nM-9 nM) in a final concentration of 1% DMSO. When potency of compound series increased, more dilutions are prepared and/or the top concentration was lowered (e.g. 5 μM, 1 μM).
# Recombinant human JAK1 (catalytic domain, amino acids 866-1154; catalog number PV4774) was purchased from Invitrogen. 1 ng of JAK1 was incubated with 20 nM Ulight-JAK1 (tyr1023) peptide (Perkin Elmer catalog number TRF0121) in kinase reaction buffer (25 mM MOPS pH6.8, 0.01% Brij-35, 5 mM MgCl2, 2 mM DTT, 7 μM ATP) with or without 4 μL containing test compound or vehicle (DMSO, 1% final concentration), in a total volume of 20 μL, in a white 384 Opti plate (Perkin Elmer, catalog number 6007290). After 60 min at room temperature, reactions were stopped by adding 20 μL/well of detection mixture (1× detection buffer (Perkin Elmer, catalog number CR97-100C), 0.5 nM Europium-anti-phosphotyrosine (PT66) (Perkin Elmer, catalog number AD0068), 10 mM EDTA). Readout is performed using the Envision with excitation at 320 nm and measuring emission at 615 nm (Perkin Elmer). Kinase activity was calculated by subtracting relative fluorescence units (RFU) obtained in the presence of a positive control inhibitor (10 μM staurosporine) from RFU obtained in the presence of vehicle. The ability of a test compound to inhibit this activity was determined as: Percentage inhibition=((RFU determined for sample with test compound present−RFU determined for sample with positive control inhibitor) divided by (RFU determined in the presence of vehicle−RFU determined for sample with positive control inhibitor))*100.
# Dose dilution series were prepared for the compounds enabling the testing of dose-response effects in the JAK1 assay and the calculation of the IC50 for the compound. Each compound is routinely tested at concentration of 20 μM followed by a 1/5 serial dilution, 10 points in a final concentration of 1% DMSO. When potency of compound series increases, more dilutions are prepared and/or the top concentration are lowered (e.g. 5 μM, 1 μM). […]
# T1 sequence (P23458 866-1154): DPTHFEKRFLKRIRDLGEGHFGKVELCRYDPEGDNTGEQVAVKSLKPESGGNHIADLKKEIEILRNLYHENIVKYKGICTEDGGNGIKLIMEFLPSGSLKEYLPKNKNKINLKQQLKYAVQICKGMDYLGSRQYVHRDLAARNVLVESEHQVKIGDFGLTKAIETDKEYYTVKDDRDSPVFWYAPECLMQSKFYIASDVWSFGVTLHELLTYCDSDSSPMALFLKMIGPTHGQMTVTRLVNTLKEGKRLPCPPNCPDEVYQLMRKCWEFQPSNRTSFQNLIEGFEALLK
row,Compound,IC50 [nM]
1,"CN(c1ccc2ncn(C)c2c1)c1ccc(C#N)cc1F [C, 3-fluoro-4-[methyl-(3-methylbenzimidazol-5-yl)amino]benzonitrile, reference compound]",> 500

# Same assay, conditions: Illustrative Compounds of the invention (Table V)
row,Compound,IC50 [nM]
1,CNC(=O)Nc1cc(Oc2cnc(C#N)cc2C)cc2c1ncn2C,0.1 to 50
2,"CCc1cc(C#N)cc(F)c1N(C)c1cc(NC(=O)[C@@H]2C[C@@H]2F)c2ncn(C)c2c1 (racemic) [Cpd 7, N-(6-((4-cyano-2-ethyl-6-fluorophenyl)(methyl)amino)-1-methyl-1H-benzo[d]imidazol-4-yl)-2-fluorocyclopropanecarboxamide (1S,2S)/(1R,2R) racemic mixture]",0.1 to 50
3,"CCc1cc(C#N)ncc1N(C)c1cc(NC(=O)C2CC2)c2ncn(C)c2c1 [Cpd 1, N-(6-((6-cyano-4-ethylpyridin-3-yl)(methyl)amino)-1-methyl-1H-benzo[d]imidazol-4-yl)cyclopropanecarboxamide]",0.1 to 50
4,"CCc1cc(C#N)cc(F)c1Nc1cc(NC(=O)C2CC2)c2ncn(C)c2c1 [Cpd 2, N-(6-(4-cyano-2-ethyl-6-fluorophenylamino)-1-methyl-1H-benzo[d]imidazol-4-yl)cyclopropanecarboxamide]",0.1 to 50
5,"CCc1cc(C#N)cc(F)c1N(C)c1cc(NC(=O)C2CC2)c2ncn(C)c2c1 [Cpd 3, N-(6-((4-cyano-2-ethyl-6-fluorophenyl)(methyl)amino)-1-methyl-1H-benzo[d]imidazol-4-yl)cyclopropanecarboxamide]",0.1 to 50
6,"CCc1cc(C#N)ncc1N(C)c1cc(NC(=O)OC)c2ncn(C)c2c1 [Cpd 4, methyl 6-((6-cyano-4-ethylpyridin-3-yl)(methyl)amino)-1-methyl-1H-benzo[d]imidazol-4-ylcarbamate]",0.1 to 50
7,"CCc1cc(C#N)cc(F)c1N(C)c1cc(NC(=O)OC)c2ncn(C)c2c1 [Cpd 5, methyl 6-((4-cyano-2-ethyl-6-fluorophenyl)(methyl)amino)-1-methyl-1H-benzo[d]imidazol-4-ylcarbamate]",0.1 to 50
8,"CCc1cc(C#N)ncc1Oc1cc(NC(=O)[C@H]2C[C@H]2F)c2ncn(C)c2c1 [Cpd 6, (1R,2R)-N-[6-[(6-cyano-4-ethyl-3-pyridyl)oxy]-1-methyl-benzimidazol-4-yl]-2-fluoro-cyclopropanecarboxamide]",0.1 to 50
9,"CCc1cc(C#N)ncc1N(C)c1cc(NC(=O)[C@H]2C[C@H]2F)c2ncn(C)c2c1 [Cpd 8, (1R,2R)-N-(6-((6-cyano-4-ethylpyridin-3-yl)(methyl)amino)-1-methyl-1H-benzo[d]imidazol-4-yl)-2-fluorocyclopropanecarboxamide]",0.1 to 50
10,"Cc1cc(C#N)ncc1N(C)c1cc(NC(=O)[C@H]2C[C@H]2F)c2ncn(C)c2c1 [Cpd 9, (1R,2R)-N-(6-((6-cyano-4-methylpyridin-3-yl)(methyl)amino)-1-methyl-1H-benzo[d]imidazol-4-yl)-2-fluorocyclopropanecarboxamide]",0.1 to 50
11,"CCc1cc(C#N)ccc1Oc1cc(NC(=O)[C@H]2C[C@H]2F)c2ncn(C)c2c1 [Cpd 10, (1R,2R)-N-[6-(4-cyano-2-ethyl-phenoxy)-1-methyl-benzimidazol-4-yl]-2-fluoro-cyclopropanecarboxamide]",0.1 to 50
12,"CN(c1cc(NC(=O)[C@H]2C[C@H]2F)c2ncn(C)c2c1)c1c(F)cc(C#N)cc1Cl [Cpd 11, (1R,2R)-N-[6-(2-chloro-4-cyano-6-fluoro-N-methyl-anilino)-1-methyl-benzimidazol-4-yl]-2-fluoro-cyclopropanecarboxamide]",0.1 to 50
13,"Cc1cc(F)ncc1N(C)c1cc(NC(=O)[C@H]2C[C@H]2F)c2ncn(C)c2c1 [Cpd 12, (1R,2R)-2-fluoro-N-[6-[(6-fluoro-4-methyl-3-pyridyl)-methyl-amino]-1-methyl-benzimidazol-4-yl]cyclopropanecarboxamide]",0.1 to 50
14,"CN(c1cc(NC(=O)[C@H]2C[C@H]2F)c2ncn(C)c2c1)c1ccc(F)nc1F [Cpd 13, (1R,2R)-N-[6-[(2,6-difluoro-3-pyridyl)-methyl-amino]-1-methyl-benzimidazol-4-yl]-2-fluoro-cyclopropanecarboxamide]",50 to 100

# Second part, the compound after the results:
row,IC50 [nM],Compound
1,0.1 to 50,"CN(c1cc(NC(=O)[C@H]2C[C@H]2F)c2ncn(C)c2c1)c1ccc(C#N)nc1F [Cpd 14, (1R,2R)-N-[6-[(6-cyano-2-fluoro-3-pyridyl)-methyl-amino]-1-methyl-benzimidazol-4-yl]-2-fluoro-cyclopropanecarboxamide]"
2,0.1 to 50,"CN(c1cc(NC(=O)[C@H]2C[C@H]2F)c2ncn(C)c2c1)c1ccc(C#N)cc1F [Cpd 15, (1R,2R)-N-[6-(4-cyano-2-fluoro-N-methyl-anilino)-1-methyl-benzimidazol-4-yl]-2-fluoro-cyclopropanecarboxamide]"
3,0.1 to 50,"Cc1cc(S(C)(=O)=O)cc(F)c1N(C)c1cc(NC(=O)[C@H]2C[C@H]2F)c2ncn(C)c2c1 [Cpd 16, (1R,2R)-2-fluoro-N-[6-(2-fluoro-N,6-dimethyl-4-methylsulfonyl-anilino)-1-methyl-benzimidazol-4-yl]cyclopropanecarboxamide]"
4,100 to 500,"CN(c1cc(NC(=O)[C@H]2C[C@H]2F)c2ncn(C)c2c1)c1ccc(S(C)(=O)=O)cc1F [Cpd 17, (1R,2R)-2-fluoro-N-[6-(2-fluoro-N-methyl-4-methylsulfonyl-anilino)-1-methyl-benzimidazol-4-yl]cyclopropanecarboxamide]"
5,0.1 to 50,"CCc1cc(S(C)(=O)=O)ncc1N(C)c1cc(NC(=O)C2CC2)c2ncn(C)c2c1 [Cpd 18, N-[6-[(4-ethyl-6-methylsulfonyl-3-pyridyl)-methyl-amino]-1-methyl-benzimidazol-4-yl]cyclopropanecarboxamide]"
6,0.1 to 50,"Cc1cc(S(C)(=O)=O)cc(F)c1N(C)c1cc(NC(=O)C2CC2)c2ncn(C)c2c1 [Cpd 19, N-[6-(2-fluoro-N,6-dimethyl-4-methylsulfonyl-anilino)-1-methyl-benzimidazol-4-yl]cyclopropanecarboxamide]"
7,0.1 to 50,"Cc1cc(C#N)ncc1Oc1cc(NC(=O)[C@H]2C[C@H]2F)c2ncn(C)c2c1 [Cpd 20, (1R,2R)-N-[6-[(6-cyano-4-methyl-3-pyridyl)oxy]-1-methyl-benzimidazol-4-yl]-2-fluoro-cyclopropanecarboxamide]"
8,0.1 to 50,"Cc1cc(C#N)nc(F)c1N(C)c1cc(NC(=O)[C@H]2C[C@H]2F)c2ncn(C)c2c1 [Cpd 21, (1R,2R)-N-[6-[(6-cyano-2-fluoro-4-methyl-3-pyridyl)-methyl-amino]-1-methyl-benzimidazol-4-yl]-2-fluoro-cyclopropanecarboxamide]"
9,0.1 to 50,"Cc1cnc(C#N)c(F)c1N(C)c1cc(NC(=O)[C@H]2C[C@H]2F)c2ncn(C)c2c1 [Cpd 22, (1R,2R)-N-[6-[(2-cyano-3-fluoro-5-methyl-4-pyridyl)-methyl-amino]-1-methyl-benzimidazol-4-yl]-2-fluoro-cyclopropanecarboxamide]"
10,0.1 to 50,"Cc1cc(C#N)ncc1Oc1cc(NC(=O)C2CC2)c2ncn(C)c2c1 [Cpd 23, N-[6-[(6-cyano-4-methyl-3-pyridyl)oxy]-1-methyl-benzimidazol-4-yl]cyclopropanecarboxamide]"
11,0.1 to 50,"CCc1cc(C(N)=O)ncc1N(C)c1cc(NC(=O)C2CC2)c2ncn(C)c2c1 [Cpd 24, 5-((4-(cyclopropanecarboxamido)-1-methyl-1H-benzo[d]imidazol-6-yl)(methyl)amino)-4-ethylpicolinamide]"
